Read-outs that look alike come from different tables or passages of the source. Non-standard residues stand in square brackets, D forms with d. Residues, ends and D or L forms follow the SMILES beside them. *: point of attachment. Dansyl = CN(C)c1cccc2c(S(=O)(=O)*)cccc12; Sar = CNCC(=O)O
What was measured:
PEPT1 = target: T1, PEPT1 (Homo sapiens, UniProt P46059); experiment: Transport currents (Vmax vs Gly-Sar) in Xenopus oocytes transfected with PEPT1, two-electrode voltage-clamp; format: cell-based; settings: for Substrate quality for PEPT1 relative to Gly-Sar (in words): cells transfected with PEPT1; for PEPT1 (% Gly-Sar) drug only (Vmax) / PEPT1 (% Gly-Sar) +XP10973 (Vmax): oocytes transfected with PEPT1; for PEPT1 (% Gly-Sar) +XP10973 (Vmax): in the presence of inhibitor XP10973
T1 construct: The complete open reading frame was cloned into a Xenopus oocyte expression plasmid; expressed in transfected cells; host or cells: Xenopus oocytes injected with cRNA
T1 sequence (P46059 1-708): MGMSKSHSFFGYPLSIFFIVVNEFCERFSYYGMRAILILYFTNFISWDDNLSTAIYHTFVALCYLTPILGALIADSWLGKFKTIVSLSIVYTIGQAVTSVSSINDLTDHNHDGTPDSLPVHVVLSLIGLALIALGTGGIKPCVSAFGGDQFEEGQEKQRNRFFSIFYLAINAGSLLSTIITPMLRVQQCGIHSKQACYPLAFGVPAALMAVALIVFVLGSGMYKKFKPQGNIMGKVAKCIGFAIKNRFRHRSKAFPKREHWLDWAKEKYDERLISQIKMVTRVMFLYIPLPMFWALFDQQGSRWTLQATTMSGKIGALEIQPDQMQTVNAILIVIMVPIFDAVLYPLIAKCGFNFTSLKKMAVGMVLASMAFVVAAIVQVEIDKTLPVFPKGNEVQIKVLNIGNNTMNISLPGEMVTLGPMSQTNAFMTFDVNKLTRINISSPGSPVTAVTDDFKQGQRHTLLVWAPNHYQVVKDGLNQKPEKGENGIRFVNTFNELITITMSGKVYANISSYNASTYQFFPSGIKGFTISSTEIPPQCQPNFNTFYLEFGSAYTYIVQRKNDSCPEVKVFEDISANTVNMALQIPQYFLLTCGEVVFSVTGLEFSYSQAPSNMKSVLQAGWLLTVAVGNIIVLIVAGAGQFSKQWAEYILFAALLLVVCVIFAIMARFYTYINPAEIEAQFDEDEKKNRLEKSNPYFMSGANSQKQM
Method: (§1) The complete open reading frame was cloned into a Xenopus oocyte expression plasmid, linearized, and cRNA was generated by run-off transcription using the T7 polymerase. Xenopus oocytes were prepared and maintained as previously described
(§2) (Collins, et al., 1997) and injected with 10-30 ng RNA. Transport currents were measured 2-4 days after injection using two-electrode voltage-clamp (Axon Instruments). All experiments were performed using a modified oocyte Ringers solution (90 mM NaCl, 2 mM KCl, 1.8 mM CaCl2, 1 mM MgCl2, and 10 mM NaHEPES, pH 6.8). The membrane potential of oocytes was held at −60 mV and current traces acquired using PowerLab software. Responses to compounds were measured in the presence and absence of a specific non-transported inhibitor (XP10973) for PEPT1 and PEPT2. Data are expressed as the currents that are blocked by XP10973

PEPT2 = target: T2, PEPT2 (Homo sapiens, UniProt Q16348, S640G); experiment: Transport currents (Vmax vs Gly-Sar) in Xenopus oocytes transfected with PEPT2, two-electrode voltage-clamp; format: cell-based; settings: for Substrate preference PEPT2 versus PEPT1 (in words): comparison of PEPT2 and PEPT1 transfected oocytes
T2 construct: The complete open reading frame was cloned into a Xenopus oocyte expression plasmid; expressed in transfected cells; host or cells: Xenopus oocytes injected with cRNA
T2 sequence (Q16348 1-729 S640G): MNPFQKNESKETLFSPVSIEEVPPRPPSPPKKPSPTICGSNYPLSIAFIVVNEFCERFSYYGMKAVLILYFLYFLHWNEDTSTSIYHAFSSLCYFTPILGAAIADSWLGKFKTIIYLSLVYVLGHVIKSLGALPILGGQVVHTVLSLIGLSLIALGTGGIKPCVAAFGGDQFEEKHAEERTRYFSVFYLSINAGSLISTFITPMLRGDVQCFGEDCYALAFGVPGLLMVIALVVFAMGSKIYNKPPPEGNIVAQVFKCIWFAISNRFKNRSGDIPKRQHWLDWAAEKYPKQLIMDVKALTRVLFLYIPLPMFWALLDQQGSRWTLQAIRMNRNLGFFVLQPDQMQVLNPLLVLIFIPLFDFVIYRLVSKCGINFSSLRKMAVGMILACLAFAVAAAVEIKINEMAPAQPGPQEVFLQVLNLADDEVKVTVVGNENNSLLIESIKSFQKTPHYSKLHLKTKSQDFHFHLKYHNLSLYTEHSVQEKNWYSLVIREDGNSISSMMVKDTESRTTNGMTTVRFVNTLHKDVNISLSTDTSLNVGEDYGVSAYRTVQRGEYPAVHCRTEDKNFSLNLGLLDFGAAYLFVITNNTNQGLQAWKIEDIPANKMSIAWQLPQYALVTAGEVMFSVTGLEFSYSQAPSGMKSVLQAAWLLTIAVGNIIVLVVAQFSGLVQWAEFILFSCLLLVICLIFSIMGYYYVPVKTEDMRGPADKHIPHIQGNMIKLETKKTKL
Method: as §1
as §2, with “Transport” for “(Collins, et al., 1997) and injected with 10-30 ng RNA. Transport”

Caco-2 cells = format: in vitro ADME
Method: Caco-2 cells were plated on Millipore transwell filters and allowed to differentiate for 18-22 days. Integrity of the monolayers was confirmed by lack of radiolabeled inulin transport across the monolayer. Compounds were added to the apical chamber, and the appearance of compounds in the basolateral chamber were measured at various timepoints by scintillation counting or LC/MS/MS.
FIGS. 1 and 2 show uptake of cephradine and cefadroxil by Caco-2 cells in the presence and absence of XP10973 inhibitor. […] However, as described above, cephradine and cefadroxil are poor substrates for PEPT1 and good substrates for PEPT2.

[1] = oocytes transfected with PEPT2, drug only
[2] = oocytes transfected with PEPT2, in the presence of inhibitor XP10973

Row | Structure (SMILES) | Substrate quality for PEPT1 relative to Gly-Sar (in words) (PEPT1) | PEPT1 (% Gly-Sar) drug only (Vmax) (PEPT1) [% Gly-Sar] | PEPT1 (% Gly-Sar) +XP10973 (Vmax) (PEPT1) [% Gly-Sar] | Substrate quality for PEPT2 relative to Gly-Sar (in words) (PEPT2; cells transfected with PEPT2) | PEPT2 (% Gly-Sar) drug only (Vmax) (PEPT2; [1]) [% Gly-Sar] | PEPT2 (% Gly-Sar) +XP10973 (Vmax) (PEPT2; [2]) [% Gly-Sar] | Uptake by Caco-2 cells (in words) (Caco-2 cells) | Inhibition of PEPT1 transport (in words) (PEPT1) | Inhibition of PEPT2 transport (in words) (PEPT2) | PEPT2 (% Gly-Sar) +XP10973 (Vmax) (PEPT2) [% Gly-Sar] | PEPT2 (% Gly-Sar) drug only (Vmax) (PEPT2) [% Gly-Sar] | Substrate quality for PEPT2 relative to Gly-Sar (in words) (PEPT2) | Substrate preference PEPT2 versus PEPT1 (in words) (PEPT2)
1 | CC1(C)S[C@@H]2[C@H](NC(=O)[C@H](N)c3ccc(O)cc3)C(=O)N2[C@H]1C(=O)O [Amoxacillin, amoxacillin] | relatively poor susbstrates | 1.3 | 1.1 |  |  |  |  |  |  | 15 | 85 | relatively good substrates | 
2 | N[C@@H](C(=O)N[C@@H]1C(=O)N2C(C(=O)O)=C(Cl)CS[C@H]12)c1ccccc1 [Cefaclor, cefaclor] | relatively poor susbstrates | 4 | 1.6 | relatively good substrates | 148 | 22 |  |  |  |  |  |  | better substrates for PEPT2 than they are for PEPT1
3 | CC1=C(C(=O)O)N2C(=O)[C@@H](NC(=O)[C@H](N)c3ccc(O)cc3)[C@H]2SC1 [Cephadroxil, cefadroxil] | relatively poor susbstrates | 18 | 2.1 | relatively good substrates | 96 | 27 | taken up |  |  |  |  |  | better substrates for PEPT2 than they are for PEPT1

Continued, in another order:

Row | Substrate quality for PEPT1 relative to Gly-Sar (in words) (PEPT1) | PEPT1 (% Gly-Sar) drug only (Vmax) (PEPT1) [% Gly-Sar] | PEPT1 (% Gly-Sar) +XP10973 (Vmax) (PEPT1) [% Gly-Sar] | Substrate quality for PEPT2 relative to Gly-Sar (in words) (PEPT2; cells transfected with PEPT2) | PEPT2 (% Gly-Sar) drug only (Vmax) (PEPT2; [1]) [% Gly-Sar] | PEPT2 (% Gly-Sar) +XP10973 (Vmax) (PEPT2; [2]) [% Gly-Sar] | Uptake by Caco-2 cells (in words) (Caco-2 cells) | Inhibition of PEPT1 transport (in words) (PEPT1) | Inhibition of PEPT2 transport (in words) (PEPT2) | Structure (SMILES) | PEPT2 (% Gly-Sar) +XP10973 (Vmax) (PEPT2) [% Gly-Sar] | PEPT2 (% Gly-Sar) drug only (Vmax) (PEPT2) [% Gly-Sar] | Substrate quality for PEPT2 relative to Gly-Sar (in words) (PEPT2) | Substrate preference PEPT2 versus PEPT1 (in words) (PEPT2)
4 | relatively poor susbstrates | 3.5 | 1.9 | relatively good substrates | 159 | 37 | taken up |  |  | CC1=C(C(=O)O)N2C(=O)[C@@H](NC(=O)[C@H](N)C3=CCC=CC3)[C@H]2SC1 [Cephradine, cephradine] |  |  |  | better substrates for PEPT2 than they are for PEPT1
5 |  | 100 | 16 |  | 100 | 12 |  |  |  | CN(CC(=O)O)C(=O)CN [Gly-Sar] (H-Gly-[Sar]-OH) |  |  |  | 
6 |  |  |  |  |  |  |  | specific inhibitor | specific inhibitor | CC(C)C[C@H](NC(=O)[C@@H](N)CCCCNS(=O)(=O)c1cccc2c(N(C)C)cccc12)C(=O)O [XP10973] (H-Lys(Dansyl)-Leu-OH) |  |  |  | 
